Results reported in patent US9943504B2, “Arginine methyltransferase inhibitors and uses thereof” (Epizyme, Inc., priority 2013, dated 2018).

Biological target: T1, human PRMT1 (Homo sapiens, UniProt Q99873)
T1 construct: GST-tagged PRMT1; made in house; host or cells: High Five insect cells (baculovirus)
Assay: PRMT1 Biochemical Assay
Conditions: biochemical evaluation, peptide substrate
Excerpt: S-adenosylmethionine (SAM), S-adenosylhomocysteine (SAH), bicine, Tween20, dimethylsulfoxide (DMSO), bovine skin gelatin (BSG), and Tris(2-carboxyethyl)phosphine hydrochloride solution (TCEP) were purchased from Sigma-Aldrich at the highest level of purity possible. ^3H-SAM was purchase from American Radiolabeled Chemicals with a specific activity of 80 Ci/mmol. 384-well streptavidin Flashplates were purchased from PerkinElmer.
Peptide representative of human histone H4 residues 36-50 was synthesized with an N-terminal linker-affinity tag motif and a C-terminal amide cap by 21st Century Biochemicals. The peptide was purified by high-performance liquid chromatography (HPLC) to greater than 95% purity and confirmed by liquid chromatography mass spectrometry (LC-MS). The sequence was Biot-Ahx-[…]-amide (SEQ ID NO.: 1). […]
The assays were all performed in a buffer consisting of 20 mM Bicine (pH=7.6), 1 mM TCEP, 0.005% BSG, and 0.002% Tween 20, prepared on the day of use. […] The plates were then read in a PerkinElmer TopCount plate reader to measure the quantity of ^3H-labeled peptide bound to the Flashplate surface, measured as disintegrations per minute (dpm) or alternatively, referred to as counts per minute (cpm). […]

T1 sequence (Q99873 with tags, fused parts or gaps): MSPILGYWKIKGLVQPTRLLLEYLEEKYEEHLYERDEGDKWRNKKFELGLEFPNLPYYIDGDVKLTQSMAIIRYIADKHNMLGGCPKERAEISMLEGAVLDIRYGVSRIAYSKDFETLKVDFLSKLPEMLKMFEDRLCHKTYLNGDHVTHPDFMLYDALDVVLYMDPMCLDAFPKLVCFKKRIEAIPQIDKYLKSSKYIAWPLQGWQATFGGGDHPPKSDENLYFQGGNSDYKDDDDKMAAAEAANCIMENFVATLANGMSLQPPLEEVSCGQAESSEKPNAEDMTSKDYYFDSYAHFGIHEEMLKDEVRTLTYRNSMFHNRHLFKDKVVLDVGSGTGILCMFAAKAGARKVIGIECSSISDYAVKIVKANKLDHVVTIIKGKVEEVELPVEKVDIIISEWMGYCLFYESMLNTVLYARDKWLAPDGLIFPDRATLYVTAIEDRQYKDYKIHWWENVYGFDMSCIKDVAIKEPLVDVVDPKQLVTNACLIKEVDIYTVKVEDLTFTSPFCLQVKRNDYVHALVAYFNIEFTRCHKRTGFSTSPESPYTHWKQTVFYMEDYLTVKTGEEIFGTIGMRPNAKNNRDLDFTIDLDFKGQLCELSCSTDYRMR

CN(CCN)Cc1n[nH]c2cccc(OCc3ccccc3)c12 [Compound 1]
IC50: ≤ 100 nM
